In brackets after ≈: the same amount, converted by molar mass. Where a SMILES comes first, the peptide text is derived from it.
Experiments:
Solubility = assay type: physicochemical
From the text: Mixing 1 or 2 with CuCl2 or CuCl provided green or blue complexes respectively. […] The blue complexes from the addition of CuCl gave very broad NMR spectra even after preparing fresh samples, which was ascribed to in situ oxidation of Cu(I); Cu(I)(TPA) complexes are very efficient one electron donors and will rapidly reduce alkyl halides[27] and oxygen.[28] Furthermore these blue products gave green solids when dried (see the ESI, Fig. S2 ^†).
Although alamethicin is a very active channel former, its use in the clinic is hampered by its high haemolytic activity.[52] […] It is known that the haemolytic activity of amphipathic peptides, including alamethicin, decreases substantially on a reduction of peptide hydrophobicity and hydrophobic moment.[56]

[1] = HPTS assay of ionophoric activity in phospholipid vesicles; assay type: biochemical; settings: Table S1, HPTS assay
Method: The membrane activity of 1, 2, Cu[1]Cl2 and Cu[2]Cl2 was assessed in phospholipid vesicle membranes using 8-hydroxypyrene-1,3,6-trisulfonate (HPTS) assays. HPTS assays can show ionophoric activity that occurs via any combination of M^+/H^+ antiport, X^–/OH^– antiport, M^+/OH^– symport and X^–/H^+ symport.
The HPTS assays of 1, 2, Cu[1]Cl2 and Cu[2]Cl2 used 1 : 4 cholesterol : egg yolk phosphatidylcholine (EYPC) vesicles in MOPS buffer (pH 7.4) with 100 mM of an appropriate salt (e.g. KCl, KBr, NaCl), following previously reported procedures.[16] The resulting normalised data were fitted to pseudo first-order rate equations as an approximation (see the ESI ^†).[32] Although the change in fluorescence after the “burst phase” is likely to arise from multiple processes, including inter-vesicle transfer of foldamers,[33] this fitting allows the relative effectiveness of each compound to be compared.
CuCl2 was added at 2 min, followed by addition of 2.2 eq. EDTA at 3 min.
5.1 Preparation of large unilamellar vesicles for HPTS assays
The HPTS assays of 1, 2, Cu[1]Cl2 and Cu[2]Cl2 used 1:4 cholesterol:egg yolk phosphatidylcholine (EYPC) vesicles in MOPS buffer (pH 7.4) with 100 mM of an appropriate salt (e.g. KCl, KBr, NaCl).5 Aliquots of 1, 2, Cu[1]Cl2 or Cu[2]Cl2 dissolved in methanol were mixed with the vesicle suspensions for 60 s before adding a base pulse to change the external pH to 8.4.6 The resulting change in HPTS fluorescence was followed for 6 min, then Triton X-100 was added at 7 min to lyse the vesicles […]. Each assay was repeated three times on new vesicles. The resulting normalized data were fitted to pseudo first-order rate equations as an approximation (see the ESI), similar to the procedure of Regen and co-workers.7 Although the change in fluorescence after the “burst phase” is likely to arise from multiple processes, including inter-vesicle transfer of foldamers,8 this fitting allows the relative effectiveness of each compound to be compared.
Egg yolk phosphatidylcholine (EYPC, 64 μmol) and cholesterol (16 μmol) were dissolved in 2 mL chloroform (spectroscopic grade). The solvent was removed under reduced pressure resulting in a thin film of lipid on the inside wall of the round bottom flask, which was dried further under vacuum for 2 hours. 1.2 mL of a trisodium 8-hydroxypyrene-1,3,6-trisulfonate (HPTS, 100 mM, pH = 7.4) dye in (3-(N-morpholino) propanesulfonic acid) buffer (20 mM MOPS, 100 mM MX (M = K or Na, X = Cl, Br or NO3− adjusted to pH 7.4 using NaOH) were added to the lipid film. Afterwards, the thin film was detached from the sides of the flask by vortex mixing. The resulting lipid suspension was then extruded 19 times through an 800 nm polycarbonate membrane in an Avestin Liposofast extruder to give a suspension of 800 nm large unilamellar vesicles. Unencapsulated HPTS dye was removed by gel permeation chromatography on PD-10 SEC columns (Sephadex G-25). Hereby 1 mL of the 800 nm vesicle suspension was diluted to 2.5 mL with 20 mM MOPS buffer solution and loaded onto the GPC column. The suspension run onto the column, followed by 3.5 mL of 20 mM MOPS buffer, which were collected, giving a stock vesicle solution of 3.5 mL (final concentration of lipids = 15.23 mM). This solution of vesicles was used directly in the HPTS experiments.
5.2 Procedure for HPTS assays
100 μL of the vesicle stock solution was diluted to 2 mL with 20 mM MOPS buffer (final lipid concentration in cuvette 0.762 mM). To this vesicle suspension was then added 20 μL of the principle compound in methanol (1 mM or 0.6 mM for Cu[2]Cl2) and the cuvette was equipped with a stirrer bar. The cuvette was […]

[2] = U-tube sodium picrate transport experiment; settings: 1 mM in chloroform, 20 mM MOPS, 100 mM NaCl, pH 7.4, 25 °C, after 24 h, UV at 356 nm
Method: To assess if these compounds can act as cation carriers, U-tube experiments for sodium picrate transport were performed on 1, Cu(II)[1]Cl2 and Cu(II)[2]Cl2. […] Similarly, a U-tube experiment for chloride transport was performed using lucigenin.[4],[40]
5.7 Preparation of large unilamellar vesicles for CF release assays
A 50 mM 5(6)-carboxyfluorescein (CF) solution in MOPS buffer (20 mM MOPS, 100 mM NaCl, pH 7.4) was prepared by dissolving 5/6-CF in MOPS buffer, adding a sodium hydroxide (1M) solution dropwise until pH 11 was reached. The resulting solution was the slowly acidified to pH 7.4.
EYPC-cholesterol (4:1) 800 nm vesicles were prepared as described above, using the above mentioned 5(6)-carboxyfluorescein (CF) (50 mM) solution. […]
The U-tube was incubated in a water bath at 25 °C and the chloroform phase was stirred at 300 rpm during the entire experiment, ensuring efficient diffusion of any potential carrier-ion complex to the receiving phase. Aliquots (1 mL) were taken from the receiving phase and analysed for the presence of picrate by UV spectroscopy (at 356 nm). […]
Figure S11: U-tube metal picrate transport data for foldamer 1 (brown), Cu[2]Cl2 (black), Cu[1]Cl2 (green), and the control transporter, dibenzo-18-crown-6 (red). Absorbance at 356 nm. […]

SMILES: CC(C)(C)OC(=O)C(C)(C)NC(=O)C(C)(C)NC(=O)C(C)(C)NC(=O)C(C)(C)NC(=O)C(C)(C)NC(=O)C(C)(C)NC(=O)C(C)(C)NC(=O)C(C)(C)n1cc(CN(Cc2ccccn2)Cc2ccccn2)nn1 [foldamer 1] (HELM PEPTIDE1{[CC(C)(C(=O)[*:2])n1cc(CN(Cc2ccccn2)Cc2ccccn2)nn1].[Aib].[Aib].[Aib].[Aib].[Aib].[Aib].[Aib].[CC(C)(C)O[*:1]]}$$$$V2.0)
- solubility limit (Solubility): 20 µM (≈ 20.4 µg/mL)
- Apparent observed rate constant kobs, KBr ([1]; 100 mM KBr, compound 10 µM): 3.3 10−3 s−1
- Apparent observed rate constant kobs, KCl ([1]; 100 mM KCl, compound 10 µM): 3 10−3 s−1
- Apparent observed rate constant kobs, KNO3 ([1]; 100 mM KNO3, compound 10 µM): 4 10−3 s−1
- Apparent observed rate constant kobs, NaCl ([1]; 100 mM NaCl, compound 10 µM, methanol control 1 × 10−3 s−1): 4 10−3 s−1
- sodium picrate transport across the bulk chloroform phase [2]: No transport across the bulk phase was observed

Source: publication PMC7481839, “Switchable foldamer ion channels with antibacterial activity” (Chemical Science, 2020)
